Consider four compounds from US20230265044A1, “SALT OF DEMETHYL TRAMADOL AND USE THEREOF” (priority 2020, published 2023).

≈ marks a conversion by molar mass, not a printed value. Some results are limits rather than exact numbers.

The nature of data set [1]: Determination on solubility in water (HPLC, stirred 24 hr). The format is physicochemical. The following applies: for solubility: in water, stirred for 24 hr; for approximate solubility: water needed to dissolve 1 g: per 1 g of sample, converted from solubility. Here is the method: 1. chromatographic column: Agilent Pursuit C18, 3um, 4.6*150 mm
2. Mobile phase: 0.1% trifluoroacetic acid: acetonitrile=20: 80, flow rate: 1.0 mL/min, wavelength: 215 nm, column temperature: 35° C., injection volume: 10 μl;
3. Mobile phase preparation process:
1.0 mL of trifluoroacetic acid was added into 1000 mL of water, mixed well, and ultrasonicated;
4. Sample preparation process
About 10 mg of the sample to be tested was weighed and added into 1 mL of water, stirred for 24 hr, and centrifuged. The supernatant was taken as the sample for testing solubility. 10 mg of demethyl tramadol palmitate with the same structure as the sample to be tested was weighed and placed in a 100 mL measuring flask, 80% aqueous methanol solution was added to dissolve and dilute the demethyl tramadol palmitate to the scale, which was used as the corresponding reference solution.

The nature of data set [2]: Determination on hygroscopicity (80% RH, 24 h). Format: physicochemical. Here is the method: Test process: a weighing bottle was taken, put into a dryer with 80% RH saturated solution, balanced for 24 h, taken out, and weighed as m1; a sample was taken, spread into the weighing bottle with a thickness about 1 mm, and weighed as m2; and then the weighing bottle was put into the dryer with 80% RH saturated solution, balanced for 24 h, and weighed as m3.
Calculation formula: hygroscopicity=(m3−m2)/(m2−m1)*100%

As to `CN(C)CC1CCCCC1(O)c1cccc(O)c1` (racemic) [Example 2, Demethyl Tramadol Palmitate Monosalt], in data set [1], the solubility is 700 µg/mL and the “approximate solubility: water needed to dissolve 1 g” value was found to be 1428.6 mL. The same compound displayed a hygroscopicity in data set [2] of 6.3%.
For the compound `CN(C)C[C@H]1CCCC[C@]1(O)c1cccc(O)c1` (racemic) [racemic demethyl tramadol free base, (±)-(1RS, 2RS)-2-[(N,N dimethylamino)methylene]-1-hydroxy-cyclohexyl phenol], in data set [1], the solubility was 1400 µg/mL (≈ 5.61 mM) and the “approximate solubility: water needed to dissolve 1 g” value was 714.3 mL.
The like results for `CN(C)C[C@H]1CCCC[C@]1(O)c1cccc(O)c1.Cl` (racemic) [racemic demethyl tramadol hydrochloride] were, in that order, “higher than 200 mg/mL” and no more than 5 mL.
For racemic demethyl tramadol acetate, in that order: “higher than 50 mg/mL” and no more than 20 mL.

A word on the solubility: it is how much of the substance goes into solution per volume.
